Laboratory results published in patent US8163793B2, “Proline derivatives” (Hoffman-La Roche Inc., priority 2009, dated 2012).
Counter-ions that a name gives are not always drawn.

Experiments:
[1] = target: Cathepsin S (UniProt P25774); test: Cathepsin enzyme inhibition assay (fluorogenic peptide substrate Z-Val-Val-Arg-AMC), Cathepsin S; assay type: biochemical, human and mouse; conditions: enzyme 1 nM, substrate 20 μM, pH 6.5; read-out: CatS IC50
In short: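 Human or mouse cathepsin S (1 nM) was run in 100 mM potassium phosphate pH 6.5 with 5 mM EDTA, 0.001% Triton X-100 and 5 mM DTT. The rise in AMC fluorescence from cleavage was measured, and IC50 values were calculated by standard methods and expressed in μM.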

[2] = target: Cat L (UniProt P07711); test: Cathepsin enzyme inhibition assay (fluorogenic peptide substrate Z-Val-Val-Arg-AMC), Cathepsin L; assay type: biochemical, human and mouse; conditions: enzyme 1 nM, substrate 20 μM, pH 6.5; read-out: CatL IC50
In short: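 Cathepsin L at 1 nM was mixed with compound, then started with 20 μM Z-Val-Val-Arg-AMC in pH 6.5 potassium phosphate with EDTA, Triton X-100 and 5 mM DTT. AMC fluorescence (ex 360/em 465 nm) was followed over 20 min. IC50 is given in μM.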

SMILES	IC50 [1]	IC50 [2]
Cc1cc(N2C[C@H](S(=O)(=O)c3ccc(F)cc3C(F)(F)F)C[C@H]2C(=O)NC2(C#N)CC2)n(C2CCC2)n1 [Example 388, (2S,4R)-1-(2-Cyclobutyl-5-methyl-2H-pyrazol-3-yl)-4-(4-fluoro-2-trifluoromethyl-benzenesulfonyl)-pyrrolidine-2-carboxylic acid (1-cyano-cyclopropyl)-amide]	0.48 nM	35.6 µM
Cc1cc(N2C[C@H](S(=O)(=O)c3ccccc3C(F)(F)F)C[C@H]2C(=O)NC2(C#N)CC2)n(C(C)C)n1 [Example 268, (2S,4R)-1-(2-Isopropyl-5-methyl-2H-pyrazol-3-yl)-4-(2-trifluoromethyl-benzenesulfonyl)-pyrrolidine-2-carboxylic acid (1-cyano-cyclopropyl)-amide]	2.35 nM	47.3 µM
N#CC1(NC(=O)[C@@H]2C[C@@H](S(=O)(=O)c3ccccc3Cl)CN2C(=O)[C@H](N)c2ccc(Cl)cc2)CC1 [Example 417, (2S,4R)-1-[(R)-2-Amino-2-(4-chloro-phenyl)-acetyl]-4-(2-chloro-benzenesulfonyl)-pyrrolidine-2-carboxylic acid (1-cyano-cyclopropyl)-amide]	2.45 nM	0.0555 µM
N#CC1(NC(=O)[C@@H]2C[C@@H](S(=O)(=O)c3ccc(Cl)cc3Cl)CN2c2ccccc2[N+](=O)[O-])CC1 [Example 167, (2S,4R)-4-(2,4-Dichloro-benzenesulfonyl)-1-(2-nitro-phenyl)-pyrrolidine-2-carboxylic acid (1-cyano-cyclopropyl)-amide]	1.4 nM	17.4 µM
Cc1cc(N2C[C@H](S(=O)(=O)c3ccccc3C(F)(F)F)C[C@H]2C(=O)NC2(C#N)CC2)n(Cc2ccccc2)n1 [Example 319, (2S,4R)-1-(2-Benzyl-5-methyl-2H-pyrazol-3-yl)-4-(2-trifluoromethyl-benzenesulfonyl)-pyrrolidine-2-carboxylic acid (1-cyano-cyclopropyl)-amide]	1.43 nM	40.8 µM
CC(C)C(=O)N1C[C@H](S(=O)(=O)c2ccccc2Cl)C[C@H]1C(=O)NC1(C#N)CC1 [Example 218, (2S,4R)-4-(2-Chloro-benzenesulfonyl)-1-isobutyryl-pyrrolidine-2-carboxylic acid (1-cyano-cyclopropyl)-amide]	0.4 nM	14.6 µM
N#CC1(NC(=O)[C@@H]2C[C@@H](S(=O)(=O)c3ccc(OCC(F)(F)F)cc3Cl)CN2C(=O)Oc2ccc(Cl)cc2)CC1 [Example 252, (2S,4R)-4-[2-Chloro-4-(2,2,2-trifluoro-ethoxy)-benzenesulfonyl]-2-(1-cyano-cyclopropylcarbamoyl)-pyrrolidine-1-carboxylic acid 4-chloro-phenyl ester]	1.75 nM	≥ 25 µM
C=CCOc1ccccc1S(=O)(=O)[C@H]1CN[C@H](C(=O)NC2(C#N)CC2)C1 [Example 453, (2S,4R)-4-(2-Allyloxy-benzenesulfonyl)-pyrrolidine-2-carboxylic acid (1-cyano-cyclopropyl)-amide]	845 nM	≥ 25 µM
CC(C)CS(=O)(=O)[C@@H]1C[C@@H](C(=O)NC2(C#N)CC2)N(C(=O)OC(C)(C)C)C1 [Example 113, (2S,4R)-2-(1-Cyano-cyclopropylcarbamoyl)-4-(2-methyl-propane-1-sulfonyl)-pyrrolidine-1-carboxylic acid tert-butyl ester]	3130 nM	≥ 25 µM
N#CC1(NC(=O)[C@H]2C[C@@H](S(=O)(=O)c3ccc(N4CCOCC4)cc3Cl)CN2C(=O)C2(C(F)(F)F)CC2)CC1 [Example 162, (2R,4R)-4-(2-Chloro-4-morpholin-4-yl-benzenesulfonyl)-1-(1-trifluoromethyl-cyclopropanecarbonyl)-pyrrolidine-2-carboxylic acid (1-cyano-cyclopropyl)-amide]	23.5 nM	≥ 25 µM
Cc1ccc(S(=O)(=O)[C@H]2CN[C@H](C(=O)NC3(C#N)CC3)C2)c(C)c1 [Example 49, (2S,4R)-4-(2,4-Dimethyl-benzenesulfonyl)-pyrrolidine-2-carboxylic acid (1-cyano-cyclopropyl)-amide Hydrochloride]	1.8 nM	6.92 µM
C[C@H](Oc1ccc(S(=O)(=O)[C@@H]2C[C@H](C(=O)NC3(C#N)CC3)N(C(=O)C3(C)CC3)C2)c(Cl)c1)C(F)(F)F [Example 200, (2R,4R)-4-[2-Chloro-4-((S)-2,2,2-trifluoro-1-methyl-ethoxy)-benzenesulfonyl]-1-(1-methyl-cyclopropanecarbonyl)-pyrrolidine-2-carboxylic acid (1-cyano-cyclopropyl)-amide]	46.7 nM	≥ 25 µM
Cc1cc(N2C[C@H](S(=O)(=O)c3ccccc3C(F)(F)F)C[C@H]2C(=O)NC2(C#N)CC2)n(C(C)(C)C)n1 [Example 339, (2S,4R)-1-(2-tert-Butyl-5-methyl-2H-pyrazol-3-yl)-4-(2-trifluoromethyl-benzenesulfonyl)-pyrrolidine-2-carboxylic acid (1-cyano-cyclopropyl)-amide]	62.5 nM	≥ 25 µM
N#CCNC(=O)C12CC(F)(F)CN1CCC2S(=O)(=O)c1ccccc1 (stereo not shown) [Example 116, 1-Benzenesulfonyl-6,6-difluoro-tetrahydro-pyrrolizine-7a-carboxylic acid cyanomethyl-amide, diasteromer Δ1]	35.5 nM	≥ 25 µM
N#CC1(NC(=O)[C@@H]2C[C@@H](S(=O)(=O)c3ccccc3)CN2C(=O)c2ccccc2)CC1 [Example 73, (2S,4R)-4-Benzenesulfonyl-1-benzoyl-pyrrolidine-2-carboxylic acid (1-cyano-cyclopropyl)-amide]	12.7 nM	≥ 25 µM
N#CC1(NC(=O)[C@@H]2C[C@@H](S(=O)(=O)CC3CC3)CN2C(=O)C2(c3ccc(Cl)cc3)CC2)CC1 [Example 424, (2S,4R)-1-[1-(4-Chloro-phenyl)-cyclopropanecarbonyl]-4-cyclopropylmethanesulfonyl-pyrrolidine-2-carboxylic acid (1-cyano-cyclopropyl)-amide]	410 nM	≥ 25 µM
N#CC1(NC(=O)[C@@H]2C[C@@H](S(=O)(=O)c3ccccc3)CN2C(=O)C2(c3ccc(Cl)cc3)CC2)CC1 [Example 457, (2S,4R)-1-(1-(4-chlorophenyl)cyclopropanecarbonyl)-N-(1-cyanocyclopropyl)-4-(phenylsulfonyl)pyrrolidine-2-carboxamide]	34000 nM	0.53 µM
N#CC1(NC(=O)[C@@H]2C[C@@H](S(=O)(=O)c3ccccc3Cl)CN2C(=O)C2(c3ccc(I)cc3)CC2)CC1 [Example 459, (2S,4R)-4-(2-Chloro-benzenesulfonyl)-1-[1-(4-iodo-phenyl)-cyclopropanecarbonyl]-pyrrolidine-2-carboxylic acid (1-cyano-cyclopropyl)-amide]	0.505 nM	0.0065 µM
CC(C)(C(=O)N1C[C@H](S(=O)(=O)c2ccccc2Cl)C[C@H]1C(=O)NC1(C#N)CC1)c1ccc(Cl)cc1 [Example 282, (2S,4R)-4-(2-Chloro-benzenesulfonyl)-1-[2-(4-chloro-phenyl)-2-methyl-propionyl]pyrrolidine-2-carboxylic acid (1-cyano-cyclopropyl)-amide]	0.24 nM	0.27 µM
N#CCNC(=O)C12CC(F)(F)CN1CCC2S(=O)(=O)c1ccccc1 (stereo not shown) [Example 117, 1-Benzenesulfonyl-6,6-difluoro-tetrahydro-pyrrolizine-7a-carboxylic acid cyanomethyl-amide, diasteromer Δ2]	86.5 nM	≥ 25 µM
N#CC1CCN2C[C@H](S(=O)(=O)c3ccc(F)cc3Cl)C[C@@]12C(=O)NC1(C#N)CC1 (stereo partly drawn) [Example 383, (6R,7aS)-6-(2-Chloro-4-fluoro-benzenesulfonyl)-1-cyano-tetrahydro-pyrrolizine-7a-carboxylic Acid (1-cyano-cyclopropyl)-amide]	14 nM	20 µM
CC(C)(C)c1ccc(C2NC(C(=O)NC3(C#N)CC3)CC2S(=O)(=O)c2ccccc2)cc1 (stereo not shown) [Example 447, 4-Benzenesulfonyl-5-(4-tert-butyl-phenyl)-pyrrolidine-2-carboxylic acid (1-cyano-cyclopropyl)-amide]	6130 nM	≥ 25 µM
Cc1cc(N2C[C@H](S(=O)(=O)c3ccccc3Cl)C[C@H]2C(=O)NC2(C#N)CC2)n(-c2ccc(C(F)(F)F)cc2)n1 [Example 253, (2S,4R)-4-(2-Chloro-benzenesulfonyl)-1-[5-methyl-2-(4-trifluoromethyl-phenyl)-2H-pyrazol-3-yl]-pyrrolidine-2-carboxylic acid (1-cyano-cyclopropyl)-amide]	1.1 nM	1.38 µM
N#CC1(NC(=O)[C@@H]2C[C@@H](S(=O)(=O)c3ccc(OCC(F)(F)F)cc3Cl)CN2C(=O)C2CC2c2ccccc2)CC1 (stereo partly shown) [Example 247]	0.385 nM	3.44 µM
Cc1cc(N2C[C@H](S(=O)(=O)c3ccc(-n4cccn4)cc3Cl)C[C@H]2C(=O)NC2(C#N)CC2)n(C2CCC2)n1 [Example 491, (2S,4R)-4-(2-Chloro-4-pyrazol-1-yl-benzenesulfonyl)-1-(2-cyclobutyl-5-methyl-2H-pyrazol-3-yl)-pyrrolidine-2-carboxylic acid (1-cyano-cyclopropyl)-amide]	0.655 nM	5.28 µM
CC(C)(C)OC(=O)N1C[C@H](S(=O)(=O)c2ccc(-n3ccnc3)cc2)C[C@H]1C(=O)NC1(C#N)CC1 [Example 3, (2S,4R)-2-(1-Cyano-cyclopropylcarbamoyl)-4-(4-imidazol-1-yl-benzenesulfonyl)-pyrrolidine-1-carboxylic acid tert-butyl ester]	11 nM	≥ 25 µM
